Experimental data as given in US10760110B2, “Antibiotic testing and screening system” (priority 2017, dated 2020).
≈ marks a conversion by molar mass, not a printed value. Read-outs that look alike come from different tables or passages of the source.

Experiments:
Conditions in all cases: Klebsiella pneumoniae
[1] = system: K. pneumoniae NVT1001 strains with carbapenemase plasmids; experiment: Etest MIC of β-lactams, OmpK35/36 loss, ΔramR and/or carbapenemase (Table 9); type: cell-based, Klebsiella pneumoniae
How it was run: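 Cloned resistance genes in pACYC177 or pACYC184 were electroporated into K. pneumoniae NVT1001. MICs were determined by Etest and rounded up to the next two-fold value. Ceftazidime and cefotaxime against the blaOXA-48 construct were also tested by CLSI broth microdilution, with breakpoints from CLSI 2017 (cephalothin CLSI 2015, moxifloxacin EUCAST 2017).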

[2] = system: K. pneumoniae NVT1001 and its ΔompK35/36 and/or ΔramR mutants; experiment: Etest MIC, OmpK35/36 loss and AcrAB-TolC overexpression (ΔramR) strains (Table 6); type: cell-based, Klebsiella pneumoniae
How it was run: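 Ceftazidime and cefotaxime were tested by CLSI broth microdilution on the blaOXA-48 pACYC177 transformant of NVT1001, using CLSI 2017 breakpoints. Parent, porin-deleted (ΔompK35/36) and ΔramR strains were tested by Etest, with values between two-fold dilutions rounded up.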

[3] = system: K. pneumoniae NVT1001 ΔramRΔompK35/36 mutant and its revertants; experiment: Etest MIC, ΔramRΔompK35/36 mutant and its revertants (Table 7); type: cell-based

## C[C@@H](O)[C@H]1C(=O)N2C(C(=O)O)=C(S[C@@H]3CN[C@H](C(=O)N(C)C)C3)[C@H](C)[C@H]12 [Meropenem]
[1]; IMP-8 on pACYC177, WT (NVT1001), read-out: MIC
  MIC: 2 µg/mL
[1]; IMP-8 on pACYC177, Δ35 (ΔompK35 mutant)
  MIC: 1 µg/mL
[1]; IMP-8 on pACYC177, Δ35/36 (ΔompK35/36 mutant)
  MIC: > 32 µg/mL
[1]; IMP-8 on pACYC177, Δ36 (ΔompK36 mutant)
  MIC: 2 µg/mL
[1]; IMP-8 on pACYC177, ΔramR mutant
  MIC: 2 µg/mL
[1]; IMP-8 on pACYC177, ΔramRΔ35 (ΔramRΔompK35 mutant)
  MIC: 2 µg/mL
[1]; IMP-8 on pACYC177, ΔramRΔ35/36 (ΔramRΔompK35/36 mutant)
  MIC: > 32 µg/mL
[1]; IMP-8 on pACYC177, ΔramRΔ36 (ΔramRΔompK36 mutant)
  MIC: > 32 µg/mL
[1]; KPC-2 on pACYC177, WT (NVT1001), read-out: MIC
  MIC: 32 µg/mL
[1]; KPC-2 on pACYC177, Δ35 (ΔompK35 mutant)
  MIC: > 32 µg/mL
[1]; KPC-2 on pACYC177, Δ35/36 (ΔompK35/36 mutant)
  MIC: > 32 µg/mL
[1]; KPC-2 on pACYC177, Δ36 (ΔompK36 mutant)
  MIC: > 32 µg/mL
[1]; KPC-2 on pACYC177, ΔramR mutant
  MIC: 32 µg/mL
[1]; KPC-2 on pACYC177, ΔramRΔ35 (ΔramRΔompK35 mutant)
  MIC: > 32 µg/mL
[1]; KPC-2 on pACYC177, ΔramRΔ35/36 (ΔramRΔompK35/36 mutant)
  MIC: > 32 µg/mL
[1]; KPC-2 on pACYC177, ΔramRΔ36 (ΔramRΔompK36 mutant)
  MIC: > 32 µg/mL
[1]; KPC-3 on pACYC177, WT (NVT1001), read-out: MIC
  MIC: 16 µg/mL
[1]; KPC-3 on pACYC177, Δ35 (ΔompK35 mutant)
  MIC: 32 µg/mL
[1]; KPC-3 on pACYC177, Δ35/36 (ΔompK35/36 mutant)
  MIC: > 32 µg/mL
[1]; KPC-3 on pACYC177, Δ36 (ΔompK36 mutant)
  MIC: > 32 µg/mL
[1]; KPC-3 on pACYC177, ΔramR mutant
  MIC: 32 µg/mL
[1]; KPC-3 on pACYC177, ΔramRΔ35 (ΔramRΔompK35 mutant)
  MIC: > 32 µg/mL
[1]; KPC-3 on pACYC177, ΔramRΔ35/36 (ΔramRΔompK35/36 mutant)
  MIC: > 32 µg/mL
[1]; KPC-3 on pACYC177, ΔramRΔ36 (ΔramRΔompK36 mutant)
  MIC: > 32 µg/mL
[1]; NDM-1 on pACYC177, WT (NVT1001), read-out: MIC
  MIC: 32 µg/mL
[1]; NDM-1 on pACYC177, Δ35 (ΔompK35 mutant)
  MIC: 32 µg/mL
[1]; NDM-1 on pACYC177, Δ35/36 (ΔompK35/36 mutant)
  MIC: > 32 µg/mL
[1]; NDM-1 on pACYC177, Δ36 (ΔompK36 mutant)
  MIC: > 32 µg/mL
[1]; NDM-1 on pACYC177, ΔramR mutant
  MIC: 32 µg/mL
[1]; NDM-1 on pACYC177, ΔramRΔ35 (ΔramRΔompK35 mutant)
  MIC: 32 µg/mL
[1]; NDM-1 on pACYC177, ΔramRΔ35/36 (ΔramRΔompK35/36 mutant)
  MIC: > 32 µg/mL
[1]; NDM-1 on pACYC177, ΔramRΔ36 (ΔramRΔompK36 mutant)
  MIC: > 32 µg/mL
[1]; OXA-48 on pACYC177, WT (NVT1001), read-out: MIC
  MIC: 2 µg/mL
[1]; OXA-48 on pACYC177, Δ35 (ΔompK35 mutant)
  MIC: 2 µg/mL
[1]; OXA-48 on pACYC177, Δ35/36 (ΔompK35/36 mutant)
  MIC: > 32 µg/mL
[1]; OXA-48 on pACYC177, Δ36 (ΔompK36 mutant)
  MIC: 8 µg/mL
[1]; OXA-48 on pACYC177, ΔramR mutant
  MIC: 2 µg/mL
[1]; OXA-48 on pACYC177, ΔramRΔ35 (ΔramRΔompK35 mutant)
  MIC: 2 µg/mL
[1]; OXA-48 on pACYC177, ΔramRΔ35/36 (ΔramRΔompK35/36 mutant)
  MIC: > 32 µg/mL
[1]; OXA-48 on pACYC177, ΔramRΔ36 (ΔramRΔompK36 mutant)
  MIC: > 32 µg/mL
[1]; VIM-1 on pACYC177, WT (NVT1001), read-out: MIC
  MIC: 16 µg/mL
[1]; VIM-1 on pACYC177, Δ35 (ΔompK35 mutant)
  MIC: > 32 µg/mL
[1]; VIM-1 on pACYC177, Δ35/36 (ΔompK35/36 mutant)
  MIC: > 32 µg/mL
[1]; VIM-1 on pACYC177, Δ36 (ΔompK36 mutant)
  MIC: > 32 µg/mL
[1]; VIM-1 on pACYC177, ΔramR mutant
  MIC: > 32 µg/mL
[1]; VIM-1 on pACYC177, ΔramRΔ35 (ΔramRΔompK35 mutant)
  MIC: 32 µg/mL
[1]; VIM-1 on pACYC177, ΔramRΔ35/36 (ΔramRΔompK35/36 mutant)
  MIC: > 32 µg/mL
[1]; VIM-1 on pACYC177, ΔramRΔ36 (ΔramRΔompK36 mutant)
  MIC: > 32 µg/mL
[1]; no supplemental plasmid, WT (NVT1001), read-out: MIC
  MIC: 0.06 µg/mL
[1]; no supplemental plasmid, Δ35 (ΔompK35 mutant)
  MIC: 0.06 µg/mL
[1]; no supplemental plasmid, Δ35/36 (ΔompK35/36 mutant)
  MIC: 0.5 µg/mL
[1]; no supplemental plasmid, Δ36 (ΔompK36 mutant)
  MIC: 0.06 µg/mL
[1]; no supplemental plasmid, ΔramR mutant
  MIC: 0.06 µg/mL
[1]; no supplemental plasmid, ΔramRΔ35 (ΔramRΔompK35 mutant)
  MIC: 0.06 µg/mL
[1]; no supplemental plasmid, ΔramRΔ35/36 (ΔramRΔompK35/36 mutant)
  MIC: 2 µg/mL
[1]; no supplemental plasmid, ΔramRΔ36 (ΔramRΔompK36 mutant)
  MIC: 2 µg/mL
[2]; WT, NVT1001, read-out: MIC
  MIC: 0.06 µg/mL (≈ 0.156 µM)
[2]; Δ35, ΔompK35 mutant
  MIC: 0.06 µg/mL (≈ 0.156 µM)
[2]; Δ35/36, ΔompK35/36 mutant
  MIC: 0.5 µg/mL (≈ 1.3 µM)
[2]; Δ36, ΔompK36 mutant
  MIC: 0.06 µg/mL (≈ 0.156 µM)
[2]; ΔramR mutant
  MIC: 0.06 µg/mL (≈ 0.156 µM)
[2]; ΔramRΔ35, ΔramRΔompK35 mutant
  MIC: 0.06 µg/mL (≈ 0.156 µM)
[2]; ΔramRΔ35/36, ΔramRΔompK35/36 mutant
  MIC: 2 µg/mL (≈ 5.22 µM)
[2]; ΔramRΔ36, ΔramRΔompK36 mutant
  MIC: 2 µg/mL (≈ 5.22 µM)
[3]; ΔramRΔompK35/36::ompK35/36 revertant
  MIC: 0.06 µg/mL
[3]; ΔramRΔompK35/36::ompK35 revertant
  MIC: 2 µg/mL
[3]; ΔramRΔompK35/36::ompK36 revertant
  MIC: 0.06 µg/mL
[3]; ΔramRΔompK35/36::ramR revertant
  MIC: 0.5 µg/mL
[3]; ΔramRΔompK35/36::ramR::ompK35/36 revertant
  MIC: 0.125 µg/mL
[3]; ΔramRΔompK35/36::ramR::ompK35 revertant
  MIC: 0.125 µg/mL
[3]; ΔramRΔompK35/36::ramR::ompK36 revertant
  MIC: 0.125 µg/mL
[3]; ΔramRΔompK35/36 mutant
  MIC: 2 µg/mL
